Experimental data published in patent publication US20260274866A1, “PYRIDO[4,3-D]PYRIMIDINE DERIVATIVES AS MUTANT KRAS G12C INHIBITORS FOR THE TREATMENT OF CANCER” (Frontier Medicines Corporation, priority 2023, published 2026).

Molecular target: T1, KRAS G12C (GMPPNP-loaded) and cRAF (Ras-binding domain) interaction (Homo sapiens, UniProt P01116, C118S/C51S/C80L/G12C)
T1 construct: truncated version comprising amino acids 1-169
Assay: AlphaScreen inhibition of KRAS G12C and cRAF binding
Assay type: biochemical
Details: KRAS G12C preloaded with GTP analogue GMPPNP, 2 hours preincubation
Procedure: The AlphaScreen technology was used to determine IC50s for compound inhibition of KRAS G12C (present as the Cys-light (C51S, C80L and C118S), truncated version comprising amino acids 1-169) and cRAF interaction. Compounds were diluted in 100% DMSO and each compound concentration was spotted at 200 nl/well onto low volume, white 384 well plates. The KRAS G12C contained a biotin-AviTag and the cRaf, as Ras-binding domain (amino acids 50-131, RBD), was GST-tagged. KRAS G12C was preloaded with the GTP analogue Guanosine 5′-[β,γ-imido]triphosphate (GMPPNP). The KRAS G12C was diluted in 25 mM Hepes, pH 7.4, 150 mM NaCl, 5 mM MgCl2, 0.01% TritonX-100 and 10 μM GMPPNP and added at 10 ul/well to compound-spotted plates resulting in a DMSO concentration of 2%. Plates were incubated for 2 hours. A mixture of RBD and the AlphaScreen streptavidin donor and glutathione acceptor beads diluted in 25 mM Hepes, pH 7.4, 150 mM NaCl, 5 mM MgCl2, 0.01% TritonX-100 and 2% DMSO was then added at 10 ul/well and incubated for 60-90 minutes before the samples were read for emission at 570 nm after excitation of the donor beads at 680 nm. All incubations were performed at room temperature. The final top compound concentration was 50 μM with 1:3 titrations for 10-point dose response curves. Final assay conditions were 0.5 nM KRAS G12C, 0.75 nM RBD and 5 ug/ml each of AlphaScreen donor and acceptor beads. IC50s were determined using nonlinear regression fit of [inhibitor] vs. response (4 parameters).
A counter assay was also set up to rule out inhibitors of the AlphaScreen technology itself. Compound plates were incubated for 2 hours as above with buffer only. The AlphaScreen beads were added as above except biotin-AviTag-GST was substituted for the RBD. Samples were read and analyzed as above.

T1 sequence (P01116 1-169 isoform P01116-2 G12C/C51S/C80L/C118S): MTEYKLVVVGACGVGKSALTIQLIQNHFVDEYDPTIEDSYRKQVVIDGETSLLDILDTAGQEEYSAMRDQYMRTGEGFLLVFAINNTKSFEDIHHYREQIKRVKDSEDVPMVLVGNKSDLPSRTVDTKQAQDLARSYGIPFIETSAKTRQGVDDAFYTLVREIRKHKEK

Row | Compound | IC50
1 | CC(/C=C/C(=O)N1CCN(c2nc(OC[C@@]34CCCN3C[C@H](F)C4)nc3c(F)c(-c4cccc5cccc(Cl)c45)ncc23)C[C@@H]1CC#N)N1C2COCC1C2 (stereo partly shown) [Compound 27] | 10 to 100 nM
2 | C[C@@H](/C=C/C(=O)N1CCN(c2nc(OC[C@@]34CCCN3C[C@H](F)C4)nc3c(F)c(-c4cccc5cccc(Cl)c45)ncc23)C[C@@H]1CC#N)N1[C@@H]2CC[C@H]1COC2 [Compound 31, 2-((S)-1-((S,E)-4-((1R,5S)-3-oxa-8-azabicyclo[3.2.1]octan-8-yl)pent-2-enoyl)-4-(7-(8-chloronaphthalen-1-yl)-8-fluoro-2-(((2R,7aS)-2-fluorotetrahydro-1H-pyrrolizin-7a(5H)-yl)methoxy)pyrido[4,3-d]pyrimidin-4-yl)piperazin-2-yl)acetonitrile] | 10 to 100 nM
3 | C[C@@H](/C=C/C(=O)N1CCN(c2nc(OC[C@@]34CCCN3C[C@H](F)C4)nc3c(F)c(-c4cccc(Cl)c4C4CC4)ncc23)C[C@@H]1CC#N)N(C)C [Compound 45, 2-((S)-4-(7-(3-chloro-2-cyclopropylphenyl)-8-fluoro-2-(((2R,7aS)-2-fluorotetrahydro-1H-pyrrolizin-7a(5H)-yl)methoxy)pyrido[4,3-d]pyrimidin-4-yl)-1-((S,E)-4-(dimethylamino)pent-2-enoyl)piperazin-2-yl)acetonitrile] | 100 to 500 nM
4 | C[C@H](/C=C/C(=O)N1CCN(c2nc(OC[C@@]34CCCN3C[C@H](F)C4)nc3c(F)c(-c4cccc5cccc(Cl)c45)ncc23)C[C@@H]1CC#N)N1C[C@H]2C[C@@H]1CO2 [Compound 25] | 10 to 100 nM
5 | C[C@H](/C=C/C(=O)N1CC[C@@H](N(C)c2nc(OC[C@@]34CCCN3C[C@H](F)C4)nc3c(F)c(-c4cccc5cccc(Cl)c45)ncc23)C1)N(C)C [Compound 1] | 100 to 500 nM
6 | C[C@@H](/C=C/C(=O)N1CCN(c2nc(OC[C@@]34CCCN3C[C@H](F)C4)nc3c(F)c(-c4cccc5cccc(Cl)c45)ncc23)C[C@@H]1CC#N)N1CC2CCC(C1)O2 [Compound 43] | 100 to 500 nM
7 | C#Cc1c(F)ccc2cccc(-c3ncc4c(N(C)[C@@H]5CCN(C(=O)/C=C/C(C)N(C)C)C5)nc(OC[C@@]56CCCN5C[C@H](F)C6)nc4c3F)c12 (stereo partly drawn) [Compound 32, (E)-4-(dimethylamino)-1-((R)-3-((7-(8-ethynyl-7-fluoronaphthalen-1-yl)-8-fluoro-2-(((2R,7aS)-2-fluorotetrahydro-1H-pyrrolizin-7a(5H)-yl)methoxy)pyrido[4,3-d]pyrimidin-4-yl)(methyl)amino)pyrrolidin-1-yl)pent-2-en-1-one] | < 10 nM
8 | CO[C@H]1CCN([C@H](C)/C=C/C(=O)N2CCN(c3nc(OC[C@@]45CCCN4C[C@H](F)C5)nc4c(F)c(-c5cccc6ccc(F)c(Cl)c56)ncc34)C[C@@H]2CC#N)C1 [Compound 20, 2-((S)-4-(7-(8-chloro-7-fluoronaphthalen-1-yl)-8-fluoro-2-(((2R,7aS)-2-fluorotetrahydro-1H-pyrrolizin-7a(5H)-yl)methoxy)pyrido[4,3-d]pyrimidin-4-yl)-1-((R,E)-4-((S)-3-methoxypyrrolidin-1-yl)pent-2-enoyl)piperazin-2-yl)acetonitrile] | < 10 nM
9 | CC(/C=C/C(=O)N1CCN(c2nc(OC[C@@]34CCCN3C[C@H](F)C4)nc3c(F)c(-c4cccc5cccc(Cl)c45)ncc23)C[C@@H]1CC#N)N1CC[C@@H](F)C1 (stereo partly drawn) [Compound 29, 2-((2S)-4-(7-(8-chloronaphthalen-1-yl)-8-fluoro-2-(((2R,7aS)-2-fluorotetrahydro-1H-pyrrolizin-7a(5H)-yl)methoxy)pyrido[4,3-d]pyrimidin-4-yl)-1-((E)-4-((R)-3-fluoropyrrolidin-1-yl)pent-2-enoyl)piperazin-2-yl)acetonitrile] | < 10 nM
10 | CC(/C=C/C(=O)N1CCN(c2nc(OC[C@@]34CCCN3C[C@H](F)C4)nc3c(F)c(-c4cccc5cccc(Cl)c45)ncc23)C[C@@H]1CC#N)N1CCOCC1 (stereo partly shown) [Compound 11] | 10 to 100 nM
11 | C[C@@H](/C=C/C(=O)N1CCN(c2nc(OC[C@@]34CCCN3C[C@H](F)C4)nc3c(F)c(-c4cccc5cccc(Cl)c45)ncc23)C[C@@H]1CC#N)N1CC2CC(C1)O2 [Compound 37] | 100 to 500 nM
12 | C[C@H](/C=C/C(=O)N1CC[C@@H](N(C)c2nc(OC[C@@]34CCCN3C[C@H](F)C4)nc3c(F)c(-c4cccc5ccc(F)c(Cl)c45)ncc23)C1)N(C)C [Compound 6] | 100 to 500 nM
13 | CC(/C=C/C(=O)N1CCN(c2nc(OC[C@@]34CCCN3C[C@H](F)C4)nc3c(F)c(-c4cccc5cccc(Cl)c45)ncc23)C[C@@H]1CC#N)N1C[C@H]2C[C@@H]1CO2 (stereo partly shown) [Compound 16] | 10 to 100 nM
14 | C[C@@H](/C=C/C(=O)N1CCN(c2nc(OC[C@@]34CCCN3C[C@H](F)C4)nc3c(F)c(-c4cccc5cccc(Cl)c45)ncc23)C[C@@H]1CC#N)N1CCOCC1 [Compound 24] | 10 to 100 nM
15 | CC(/C=C/C(=O)N1CC[C@@H](N(C)c2nc(OC[C@@]34CCCN3C[C@H](F)C4)nc3c(F)c(-c4cccc(Cl)c4C4CC4)ncc23)C1)N(C)C (stereo partly shown) [Compound 35] | 100 to 500 nM
16 | CC(/C=C/C(=O)N1CCN(c2nc(OC[C@@]34CCCN3C[C@H](F)C4)nc3c(F)c(-c4cccc5cccc(Cl)c45)ncc23)C[C@@H]1CC#N)N1C[C@@H]2C[C@H]1CO2 (stereo partly shown) [Compound 15] | 10 to 100 nM
17 | C[C@@H](/C=C/C(=O)N1CC[C@@H](N(C)c2nc(OC[C@@]34CCCN3C[C@H](F)C4)nc3c(F)c(-c4cccc5cccc(Cl)c45)ncc23)C1)N(C)C [Compound 2] | < 10 nM
18 | C[C@@H](/C=C/C(=O)N1CCN(c2nc(OC[C@@]34CCCN3C[C@H](F)C4)nc3c(F)c(-c4cccc5cccc(Cl)c45)ncc23)C[C@@H]1CC#N)N1C[C@H]2C[C@@H]1CO2 [Compound 26] | 10 to 100 nM
19 | CO[C@H]1CCN(C(C)/C=C/C(=O)N2CCN(c3nc(OC[C@@]45CCCN4C[C@H](F)C5)nc4c(F)c(-c5cccc6ccc(F)c(Cl)c56)ncc34)C[C@@H]2CC#N)C1 (stereo partly shown) [Compound 13] | < 10 nM
20 | C[C@@H](/C=C/C(=O)N1CC[C@@H](N(C)c2nc(OC[C@@]34CCCN3C[C@H](F)C4)nc3c(F)c(-c4cccc5ccc(F)c(F)c45)ncc23)C1)N(C)C [Compound 10, (S,E)-1-((R)-3-((7-(7,8-difluoronaphthalen-1-yl)-8-fluoro-2-(((2R,7aS)-2-fluorotetrahydro-1H-pyrrolizin-7a(5H)-yl)methoxy)pyrido[4,3-d]pyrimidin-4-yl)(methyl)amino)pyrrolidin-1-yl)-4-(dimethylamino)pent-2-en-1-one] | < 10 nM
21 | C[C@@H](/C=C/C(=O)N1C[C@H](F)[C@@H](N(C)c2nc(OC[C@@]34CCCN3C[C@H](F)C4)nc3c(F)c(-c4cccc5cccc(Cl)c45)ncc23)C1)N(C)C [Compound 8] | 10 to 100 nM
22 | CO[C@@H]1CCN([C@H](C)/C=C/C(=O)N2CCN(c3nc(OC[C@@]45CCCN4C[C@H](F)C5)nc4c(F)c(-c5cccc6ccc(F)c(Cl)c56)ncc34)C[C@@H]2CC#N)C1 [Compound 40] | 100 to 500 nM
23 | C[C@H](/C=C/C(=O)N1CCN(c2nc(OC[C@@]34CCCN3C[C@H](F)C4)nc3c(F)c(-c4cccc5cccc(Cl)c45)ncc23)C[C@@H]1CC#N)N1CC[C@H](F)C1 [Compound 38] | ≥ 500 nM
24 | C[C@H](/C=C/C(=O)N1CCN(c2nc(OC[C@@]34CCCN3C[C@H](F)C4)nc3c(F)c(-c4cccc5cccc(Cl)c45)ncc23)C[C@@H]1CC#N)N1[C@@H]2CC[C@H]1COC2 [Compound 30, 2-((S)-1-((R,E)-4-((1R,5S)-3-oxa-8-azabicyclo[3.2.1]octan-8-yl)pent-2-enoyl)-4-(7-(8-chloronaphthalen-1-yl)-8-fluoro-2-(((2R,7aS)-2-fluorotetrahydro-1H-pyrrolizin-7a(5H)-yl)methoxy)pyrido[4,3-d]pyrimidin-4-yl)piperazin-2-yl)acetonitrile] | 10 to 100 nM
25 | CO[C@@H]1CCN([C@@H](C)/C=C/C(=O)N2CCN(c3nc(OC[C@@]45CCCN4C[C@H](F)C5)nc4c(F)c(-c5cccc6ccc(F)c(Cl)c56)ncc34)C[C@@H]2CC#N)C1 [Compound 39] | 100 to 500 nM
26 | C[C@@H](/C=C/C(=O)N1CCN(c2nc(OCC34CCCN3CCC4)nc3c2CCN(c2cccc4cccc(Cl)c24)C3)C[C@@H]1CC#N)N(C)C [Compound 5] | 10 to 100 nM
27 | CC(/C=C/C(=O)N1CCN(c2nc(OCC34CCCN3CCC4)nc3c2CCN(c2cccc4cccc(Cl)c24)C3)C[C@@H]1CC#N)N1CCOCC1 (stereo partly shown) [Compound 3] | 10 to 100 nM
28 | C[C@H](/C=C/C(=O)N1CCN(c2nc(OC[C@@]34CCCN3C[C@H](F)C4)nc3c(F)c(-c4cccc5cccc(Cl)c45)ncc23)C[C@@H]1CC#N)N1CCOCC1 [Compound 23] | 10 to 100 nM
